The results in this text go back to patent EP4678627A1, “NOVEL FERROPTOSIS INHIBITORS” (Universiteit Antwerpen, priority 2024, dated 2026).

The series in a line: Human liver microsomal stability. The note with it: Corning ultra pool human liver microsome (HLM), NADPH, 1 µM, 0.5 mg/ml protein. On the technique in general: Liver microsomes are a subcellular fraction often used to study metabolism.

`COc1ccc2c(c1)[C@]13CCCC[C@@H]1[C@H](C2)N(C)CC3` [Dextromethorphan]: the “Microsomal stability in human t1/2” value is given as 40.0 min.
